US11970498B2, “CDK2 inhibitors” (BLUEPRINT MEDICINES CORPORATION, priority 2021, dated 2024)

Assays:
[1] = biological target: CDK2/Cyclin E (Homo sapiens, UniProt P24941); experiment: CDK2/Cyclin E biochemical phosphorylation assay (Caliper mobility shift); settings: apparent IC50; 1.0 mM ATP or ATP Km; 1.25 nM enzyme; 25° C.; read-out: CDK2/cyclin E1 IC50
Protocol: (§1) Inhibitory effects of the compounds of the disclosure were measured in biochemical assays that measure the enzymatic phosphorylation activity of CDK enzyme in complex of Cyclin proteins phosphorylates 7.5 micromolar fluorescently labelled peptide substrate, 5-FAM-QSPKKG-CONH2, (FL-Peptide 18, Perkin Elmer, 760362) in the presence of adenosine-5′-triphosphate (ATP) and varying concentrations of the test compound in 100 mM 2-[4-(2-hydroxyethyl)piperazin-1-yl] ethanesulfonic acid (HEPES), pH 7.5, 10 mM MgCl2, 0.015% Brij-35, 1 mM dithiothreitol (DTT), 1.0% dimethylsulfoxide (DMSO). Assays were performed at 1.0 mM ATP or at ATP Km of the CDK enzymes in complex with Cyclin proteins. Reactions proceeded until between 10% to 20% total peptides were phosphorylated at room temperature (25° C.) and were terminated with 35 mM 2,2′,2″,2′″-(ethane-1,2-diyldinitrilo)tetraacetic acid (EDTA). Product was detected using the Caliper mobility shift detection method where the phosphorylated peptide (product) and substrate were electrophoretically separated and measured. Percent activity was plotted against log concentration of compound and points to generate an apparent IC50. The following CDK enzymes in complex with different cyclin proteins were used in these assays: • CDK1/Cyclin B1, GST-tag (BPS, 40454), 1.5 nM used in the assay • CDK2/Cyclin E (Eurofins, 14-475), 1.25 nM used in the assays
(§2) For inhibitory activity against CDK2/Cyclin E mutant, the following designations are used: ≤10 nM=A; >10-20 nM=B; >20-30 nM=C; >30-100 nM=D and >100=E. For inhibition CDK1/Cyclin B1, GST-tag: ≥500 nM=A; <100-500 nM=B; <100 nM=C.

[2] = biological target: T1, CDK1/Cyclin B1, GST-tag (Homo sapiens, UniProt P06493); experiment: CDK1/Cyclin B1 biochemical phosphorylation assay (Caliper mobility shift); settings: apparent IC50; 1.0 mM ATP or ATP Km; 1.5 nM enzyme; 25° C.
T1 construct: GST
Protocol: as §1, §2

T1 sequence (P06493 whole entry): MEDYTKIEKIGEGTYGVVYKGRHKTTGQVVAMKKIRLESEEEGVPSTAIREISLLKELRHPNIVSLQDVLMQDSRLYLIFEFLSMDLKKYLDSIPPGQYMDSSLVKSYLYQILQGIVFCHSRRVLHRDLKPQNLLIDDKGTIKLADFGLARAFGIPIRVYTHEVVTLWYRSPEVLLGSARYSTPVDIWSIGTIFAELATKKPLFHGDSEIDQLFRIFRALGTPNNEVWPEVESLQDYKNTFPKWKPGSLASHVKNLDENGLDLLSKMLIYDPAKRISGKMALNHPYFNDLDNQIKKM
T1 sequence (P14635 whole entry partner): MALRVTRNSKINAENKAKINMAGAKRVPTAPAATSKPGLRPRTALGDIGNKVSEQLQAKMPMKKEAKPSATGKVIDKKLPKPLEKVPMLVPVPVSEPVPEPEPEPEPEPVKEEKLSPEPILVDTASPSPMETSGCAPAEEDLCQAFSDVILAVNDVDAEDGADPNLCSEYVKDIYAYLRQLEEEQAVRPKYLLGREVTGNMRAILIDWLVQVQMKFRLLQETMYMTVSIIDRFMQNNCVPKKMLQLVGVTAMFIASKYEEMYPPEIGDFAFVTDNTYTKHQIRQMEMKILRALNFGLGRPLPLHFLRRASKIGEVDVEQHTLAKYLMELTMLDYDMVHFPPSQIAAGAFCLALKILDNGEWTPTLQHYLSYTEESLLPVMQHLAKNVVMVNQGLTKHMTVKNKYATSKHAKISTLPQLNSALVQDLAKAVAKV

| SMILES | IC50 [1] [nM] | IC50 [2] [nM] |
| --- | --- | --- |
| FC(F)Oc1cc(Nc2cnc3cnn(C4CCOCC4)c3n2)n[nH]1 [Example 83, N-(5-(difluoromethoxy)-1H-pyrazol-3-yl)-1-(tetrahydro-2H-pyran-4-yl)-1H-pyrazolo[3,4-b]pyrazin-6-amine] | ≤ 10 | ≥ 500 |
| O[C@H]1CC[C@@H](n2ncc3ncc(Nc4cc(OC(F)F)[nH]n4)nc32)C1 (single isomer, unassigned) [Example 207] | 10 to 20 | ≥ 500 |
| CC(C)Cn1ncc2ncc(Nc3cc(OC(F)F)[nH]n3)nc21 [Example 100, N-(5-(difluoromethoxy)-1H-pyrazol-3-yl)-1-isobutyl-1H-pyrazolo[3,4-b]pyrazin-6-amine] | 10 to 20 | ≥ 500 |
| FC(F)Oc1cc(Nc2cnc3cnn(C[C@H]4CCCCO4)c3n2)n[nH]1 [Example 107, (R)-N-(5-(difluoromethoxy)-1H-pyrazol-3-yl)-1-((tetrahydro-2H-pyran-2-yl)methyl)-1H-pyrazolo[3,4-b]pyrazin-6-amine] | 20 to 30 | ≥ 500 |
| FC(F)Oc1cc(Nc2cnc3cnn(CC4(C(F)F)CCOCC4)c3n2)n[nH]1 [Example 122, N-(5-(difluoromethoxy)-1H-pyrazol-3-yl)-1-((4-(difluoromethyl)tetrahydro-2H-pyran-4-yl)methyl)-1H-pyrazolo[3,4-b]pyrazin-6-amine] | 20 to 30 | ≥ 500 |
| FC(F)Oc1cc(Nc2cnc3cnn(CC4(F)CCOCC4)c3n2)n[nH]1 [Example 112, N-(5-(difluoromethoxy)-1H-pyrazol-3-yl)-1-((4-fluorotetrahydro-2H-pyran-4-yl)methyl)-1H-pyrazolo[3,4-b]pyrazin-6-amine] | 20 to 30 | ≥ 500 |
| C[C@H]([C@@H]1CCOC1)n1ncc2ncc(Nc3cc(OC(F)F)[nH]n3)nc21 (single isomer, unassigned) [Example 11] | 20 to 30 | ≥ 500 |
| C[C@H]([C@H]1CCOC1)n1ncc2ncc(Nc3cc(OC(F)F)[nH]n3)nc21 (single isomer, unassigned) [Example 10] | ≤ 10 | < 100 |
| COc1cc(Nc2cnc3cnn([C@@H](C)c4cc(F)ccn4)c3n2)n[nH]1 (single isomer, unassigned) [Example 186, (S)-1-(1-(4-fluoropyridin-2-yl)ethyl)-N-(5-methoxy-1H-pyrazol-3-yl)-1H-pyrazolo[3,4-b]pyrazin-6-amine or (R)-1-(1-(4-fluoropyridin-2-yl)ethyl)-N-(5-methoxy-1H-pyrazol-3-yl)-1H-pyrazolo[3,4-b]pyrazin-6-amine] | 10 to 20 | ≥ 500 |
| O[C@H]1C[C@H](n2ncc3ncc(Nc4cc(OC(F)F)[nH]n4)nc32)C1 (single isomer, unassigned) [Example 145, (1r,3r)-3-(6-((5-(difluoromethoxy)-1H-pyrazol-3-yl)amino)-1H-pyrazolo[3,4-b]pyrazin-1-yl)cyclobutan-1-ol or (1s,3s)-3-(6-((5-(difluoromethoxy)-1H-pyrazol-3-yl)amino)-1H-pyrazolo[3,4-b]pyrazin-1-yl)cyclobutan-1-ol] | > 100 | ≥ 500 |
| FC(F)Oc1cc(Nc2cnc3cnn(Cc4cscn4)c3n2)n[nH]1 [Example 52, N-(5-(difluoromethoxy)-1H-pyrazol-3-yl)-1-(thiazol-4-ylmethyl)-1H-pyrazolo[3,4-b]pyrazin-6-amine] | 30 to 100 | ≥ 500 |
| COc1cc(Nc2cnc3cnn([C@@H](CF)C4CCOCC4)c3n2)n[nH]1 (single isomer, unassigned) [Example 194, (R)-1-(2-fluoro-1-(tetrahydro-2H-pyran-4-yl)ethyl)-N-(5-methoxy-1H-pyrazol-3-yl)-1H-pyrazolo[3,4-b]pyrazin-6-amine or (S)-1-(2-fluoro-1-(tetrahydro-2H-pyran-4-yl)ethyl)-N-(5-methoxy-1H-pyrazol-3-yl)-1H-pyrazolo[3,4-b]pyrazin-6-amine] | ≤ 10 | 100 to 500 |
| CC1(C)C[C@H](Cn2ncc3ncc(Nc4cc(OC(F)F)[nH]n4)nc32)C(=O)N1 (single isomer, unassigned) [Example 184, (R)-3-((6-((5-(difluoromethoxy)-1H-pyrazol-3-yl)amino)-1H-pyrazolo[3,4-b]pyrazin-1-yl)methyl)-5,5-dimethylpyrrolidin-2-one or (S)-3-((6-((5-(difluoromethoxy)-1H-pyrazol-3-yl)amino)-1H-pyrazolo[3,4-b]pyrazin-1-yl)methyl)-5,5-dimethylpyrrolidin-2-one] | 30 to 100 | ≥ 500 |
| Fc1ccccc1Cn1ncc2ncc(Nc3cc(OC(F)F)[nH]n3)nc21 [Example 37, N-(5-(difluoromethoxy)-1H-pyrazol-3-yl)-1-(2-fluorobenzyl)-1H-pyrazolo[3,4-b]pyrazin-6-amine] | 20 to 30 | ≥ 500 |
| CC[C@@H]([C@H](C)O)n1ncc2ncc(Nc3cc(OC(F)F)[nH]n3)nc21 (single isomer, unassigned) [Example 6, (2S,3S)-3-(6-((5-(difluoromethoxy)-1H-pyrazol-3-yl)amino)-1H-pyrazolo[3,4-b]pyrazin-1-yl)pentan-2-ol or (2S,3R)-3-(6-((5-(difluoromethoxy)-1H-pyrazol-3-yl)amino)-1H-pyrazolo[3,4-b]pyrazin-1-yl)pentan-2-ol] | 30 to 100 | ≥ 500 |
| C[C@@H](c1cc(Cl)ccn1)n1ncc2ncc(Nc3cc(OC(F)F)[nH]n3)nc21 (single isomer, unassigned) [Example 188, (S)-1-(1-(4-chloropyridin-2-yl)ethyl)-N-(5-(difluoromethoxy)-1H-pyrazol-3-yl)-1H-pyrazolo[3,4-b]pyrazin-6-amine or (R)-1-(1-(4-chloropyridin-2-yl)ethyl)-N-(5-(difluoromethoxy)-1H-pyrazol-3-yl)-1H-pyrazolo[3,4-b]pyrazin-6-amine] | 30 to 100 | ≥ 500 |
| COc1cc(Nc2cnc3cnn([C@@H](C)c4ccccn4)c3n2)n[nH]1 [Example 45, (S)-N-(5-methoxy-1H-pyrazol-3-yl)-1-(1-(pyridin-2-yl)ethyl)-1H-pyrazolo[3,4-b]pyrazin-6-amine] | ≤ 10 | ≥ 500 |
| FC(F)Oc1cc(Nc2cnc3cnn(C[C@@H]4COCCO4)c3n2)n[nH]1 [Example 88, (R)-1-((1,4-dioxan-2-yl)methyl)-N-(5-(difluoromethoxy)-1H-pyrazol-3-yl)-1H-pyrazolo[3,4-b]pyrazin-6-amine] | ≤ 10 | ≥ 500 |
| O=C1C[C@@H](Cn2ncc3ncc(Nc4cc(OC(F)F)[nH]n4)nc32)CN1 (single isomer, unassigned) [Example 21, (R)-4-((6-((5-(difluoromethoxy)-1H-pyrazol-3-yl)amino)-1H-pyrazolo[3,4-b]pyrazin-1-yl)methyl)pyrrolidin-2-one or (S)-4-((6-((5-(difluoromethoxy)-1H-pyrazol-3-yl)amino)-1H-pyrazolo[3,4-b]pyrazin-1-yl)methyl)pyrrolidin-2-one] | 20 to 30 | ≥ 500 |
| C[C@@H](c1ccc(F)nc1)n1ncc2ncc(Nc3cc(OC(F)F)[nH]n3)nc21 (single isomer, unassigned) [Example 152, (R)-N-(5-(difluoromethoxy)-1H-pyrazol-3-yl)-1-(1-(6-fluoropyridin-3-yl)ethyl)-1H-pyrazolo[3,4-b]pyrazin-6-amine or (S)-N-(5-(difluoromethoxy)-1H-pyrazol-3-yl)-1-(1-(6-fluoropyridin-3-yl)ethyl)-1H-pyrazolo[3,4-b]pyrazin-6-amine] | 20 to 30 | ≥ 500 |
| COc1cc(Nc2cnc3cnn([C@@H](C)C4CC4)c3n2)n[nH]1 [Example 68, (S)-1-(1-cyclopropylethyl)-N-(5-methoxy-1H-pyrazol-3-yl)-1H-pyrazolo[3,4-b]pyrazin-6-amine] | 10 to 20 | ≥ 500 |
| FC[C@H](c1ccccc1)n1ncc2ncc(Nc3cc(OC(F)F)[nH]n3)nc21 (single isomer, unassigned) [Example 90, (S)-N-(5-(difluoromethoxy)-1H-pyrazol-3-yl)-1-(2-fluoro-1-phenylethyl)-1H-pyrazolo[3,4-b]pyrazin-6-amine or (R)-N-(5-(difluoromethoxy)-1H-pyrazol-3-yl)-1-(2-fluoro-1-phenylethyl)-1H-pyrazolo[3,4-b]pyrazin-6-amine] | 30 to 100 | ≥ 500 |
| C[C@@H](c1cc(Cl)ccn1)n1ncc2ncc(Nc3cc(OC(F)F)[nH]n3)nc21 (single isomer, unassigned) [Example 189, (R)-1-(1-(4-chloropyridin-2-yl)ethyl)-N-(5-(difluoromethoxy)-1H-pyrazol-3-yl)-1H-pyrazolo[3,4-b]pyrazin-6-amine or (S)-1-(1-(4-chloropyridin-2-yl)ethyl)-N-(5-(difluoromethoxy)-1H-pyrazol-3-yl)-1H-pyrazolo[3,4-b]pyrazin-6-amine] | > 100 | ≥ 500 |
